Measured values taken from ChEMBL document CHEMBL2010722, “Structure-activity relationship study of beta-carboline derivatives as haspin kinase inhibitors” (Bioorg Med Chem Lett, 2012).

Legend:
[1] = target: Dual specificity mitogen-activated protein kinase kinase 4 (Homo sapiens) (UniProt P45985); assay: Inhibition of MAP2K4 at 10 uM
[2] = system: Platelet-derived growth factor receptor alpha (Homo sapiens), P16234 [V561D]; assay: Inhibition of PDGFRa V561D mutant at 10 uM
[3] = target: Mitogen-activated protein kinase 13 (Homo sapiens) (UniProt O15264); assay: Inhibition of p38delta at 10 uM
[4] = target: Aurora kinase C (Homo sapiens) (UniProt Q9UQB9); assay: Inhibition of AurC at 10 uM
[5] = target: Ephrin type-B receptor 1 (Homo sapiens) (UniProt P54762); assay: Inhibition of EPHB1 at 10 uM
[6] = target: Serine/threonine-protein kinase MARK2 (Homo sapiens) (UniProt Q7KZI7); assay: Inhibition of MARK2 at 10 uM
[7] = target: Serine/threonine-protein kinase 38-like (Homo sapiens) (UniProt Q9Y2H1); assay: Inhibition of NDR2 at 10 uM
[8] = target: MAP/microtubule affinity-regulating kinase 3 (Homo sapiens) (UniProt P27448); assay: Inhibition of MARK3 at 10 uM
[9] = target: Proto-oncogene tyrosine-protein kinase Src (Homo sapiens) (UniProt P12931); assay: Inhibition of SRC at 10 uM
[10] = target: T1, Dual specificity tyrosine-phosphorylation-regulated kinase 2 (Homo sapiens, UniProt Q92630)
T1 sequence (Q92630 whole entry): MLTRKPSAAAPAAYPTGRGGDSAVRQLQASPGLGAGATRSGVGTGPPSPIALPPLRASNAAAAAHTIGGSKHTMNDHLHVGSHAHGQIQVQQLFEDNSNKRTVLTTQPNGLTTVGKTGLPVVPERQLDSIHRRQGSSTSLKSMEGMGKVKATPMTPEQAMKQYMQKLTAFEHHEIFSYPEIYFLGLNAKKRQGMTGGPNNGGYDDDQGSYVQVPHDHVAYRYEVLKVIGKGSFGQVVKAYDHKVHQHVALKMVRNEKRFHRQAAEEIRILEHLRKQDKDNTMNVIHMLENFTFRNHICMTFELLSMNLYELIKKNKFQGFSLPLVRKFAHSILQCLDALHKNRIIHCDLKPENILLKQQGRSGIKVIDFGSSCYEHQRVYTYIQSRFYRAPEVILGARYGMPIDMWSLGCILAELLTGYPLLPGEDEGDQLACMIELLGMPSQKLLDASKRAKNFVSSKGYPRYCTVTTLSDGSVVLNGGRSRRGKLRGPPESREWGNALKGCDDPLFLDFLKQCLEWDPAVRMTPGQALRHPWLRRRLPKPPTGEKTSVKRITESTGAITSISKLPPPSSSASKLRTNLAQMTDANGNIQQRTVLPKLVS

[11] = target: Dual specificity tyrosine-phosphorylation-regulated kinase 2 (Homo sapiens) (UniProt Q92630); assay: Inhibition of DYRK2 at 10 uM
[12] = target: Inhibitor of nuclear factor kappa-B kinase subunit alpha (Homo sapiens) (UniProt O15111); assay: Inhibition of IKKa at 10 uM
[13] = target: Testis-specific serine/threonine-protein kinase 1 (Homo sapiens) (UniProt Q9BXA7); assay: Inhibition of TSSK1 at 10 uM
[14] = target: Ephrin type-A receptor 2 (Homo sapiens) (UniProt P29317); assay: Inhibition of EPHA2 at 10 uM
[15] = target: Tyrosine-protein kinase JAK2 (Homo sapiens) (UniProt O60674); assay: Inhibition of JAK2 at 10 uM
[16] = target: Calcium/calmodulin-dependent protein kinase type II subunit beta (Homo sapiens) (UniProt Q13554); assay: Inhibition of CaMK2b at 10 uM
[17] = system: Epidermal growth factor receptor (Homo sapiens), P00533 [L858R]; assay: Inhibition of EGFR L858R mutant at 10 uM; assay type: protein assay
[18] = target: Calcium/calmodulin-dependent protein kinase type II subunit alpha (Homo sapiens) (UniProt Q9UQM7); assay: Inhibition of CaMK2a at 10 uM
[19] = target: Platelet-derived growth factor receptor alpha (Homo sapiens) (UniProt P16234); assay: Inhibition of PDGFRa at 10 uM
[20] = target: Ribosomal protein S6 kinase alpha-3 (Homo sapiens) (UniProt P51812); assay: Inhibition of RSK2 N-terminal at 10 uM
[21] = target: Mitogen-activated protein kinase kinase kinase 8 (Homo sapiens) (UniProt P41279); assay: Inhibition of COT at 10 uM
[22] = target: AMP-activated protein kinase (AMPK) alpha-1/beta-1/gamma-1 (Homo sapiens) (UniProt P54619+Q9Y478+Q13131); assay: Inhibition of AMPKalpha1/beta1/gamma1 at 10 uM; assay type: protein-complex assay
[23] = target: Eukaryotic translation initiation factor 2-alpha kinase 3 (Homo sapiens) (UniProt Q9NZJ5); assay: Inhibition of PEK at 10 uM
[24] = target: Eukaryotic elongation factor 2 kinase (Homo sapiens) (UniProt O00418); assay: Inhibition of EEF2K at 10 uM
[25] = target: RAC-beta serine/threonine-protein kinase (Homo sapiens) (UniProt P31751); assay: Inhibition of AKT2 at 10 uM
[26] = target: Citron Rho-interacting kinase (Homo sapiens) (UniProt O14578); assay: Inhibition of CRIK at 10 uM
[27] = system: Epidermal growth factor receptor (Homo sapiens), P00533 [L858R,T790M]; assay: Inhibition of EGFR T790M/L858R mutant at 10 uM; assay type: protein assay
[28] = target: Receptor tyrosine-protein kinase erbB-4 (Homo sapiens) (UniProt Q15303); assay: Inhibition of HER4 at 10 uM
[29] = target: Glycogen synthase kinase-3 alpha (Homo sapiens) (UniProt P49840); assay: Inhibition of GSK3a at 10 uM
[30] = target: Inhibitor of nuclear factor kappa-B kinase subunit epsilon (Homo sapiens) (UniProt Q14164); assay: Inhibition of IKKe at 10 uM
[31] = target: Mitogen-activated protein kinase kinase kinase 2 (Homo sapiens) (UniProt Q9Y2U5); assay: Inhibition of MAP3K2 at 10 uM
[32] = target: Dual specificity mitogen-activated protein kinase kinase 6 (Homo sapiens) (UniProt P52564); assay: Inhibition of MAP2K6 at 10 uM
[33] = target: NUAK family SNF1-like kinase 1 (Homo sapiens) (UniProt O60285); assay: Inhibition of NuaK1 at 10 uM
[34] = target: Non-receptor tyrosine-protein kinase TYK2 (Homo sapiens) (UniProt P29597); assay: Inhibition of TYK2 at 10 uM
[35] = target: Serine/threonine-protein kinase PAK 5 (Homo sapiens) (UniProt Q9P286); assay: Inhibition of PAK5 (PAK7) at 10 uM
[36] = target: Mitogen-activated protein kinase 11 (Homo sapiens) (UniProt Q15759); assay: Inhibition of p38beta at 10 uM
[37] = target: Phosphorylase b kinase gamma catalytic chain, skeletal muscle/heart isoform (Homo sapiens) (UniProt Q16816); assay: Inhibition of PHKG1 at 10 uM

Citron Rho-interacting kinase (Homo sapiens), sequence (O14578 whole entry): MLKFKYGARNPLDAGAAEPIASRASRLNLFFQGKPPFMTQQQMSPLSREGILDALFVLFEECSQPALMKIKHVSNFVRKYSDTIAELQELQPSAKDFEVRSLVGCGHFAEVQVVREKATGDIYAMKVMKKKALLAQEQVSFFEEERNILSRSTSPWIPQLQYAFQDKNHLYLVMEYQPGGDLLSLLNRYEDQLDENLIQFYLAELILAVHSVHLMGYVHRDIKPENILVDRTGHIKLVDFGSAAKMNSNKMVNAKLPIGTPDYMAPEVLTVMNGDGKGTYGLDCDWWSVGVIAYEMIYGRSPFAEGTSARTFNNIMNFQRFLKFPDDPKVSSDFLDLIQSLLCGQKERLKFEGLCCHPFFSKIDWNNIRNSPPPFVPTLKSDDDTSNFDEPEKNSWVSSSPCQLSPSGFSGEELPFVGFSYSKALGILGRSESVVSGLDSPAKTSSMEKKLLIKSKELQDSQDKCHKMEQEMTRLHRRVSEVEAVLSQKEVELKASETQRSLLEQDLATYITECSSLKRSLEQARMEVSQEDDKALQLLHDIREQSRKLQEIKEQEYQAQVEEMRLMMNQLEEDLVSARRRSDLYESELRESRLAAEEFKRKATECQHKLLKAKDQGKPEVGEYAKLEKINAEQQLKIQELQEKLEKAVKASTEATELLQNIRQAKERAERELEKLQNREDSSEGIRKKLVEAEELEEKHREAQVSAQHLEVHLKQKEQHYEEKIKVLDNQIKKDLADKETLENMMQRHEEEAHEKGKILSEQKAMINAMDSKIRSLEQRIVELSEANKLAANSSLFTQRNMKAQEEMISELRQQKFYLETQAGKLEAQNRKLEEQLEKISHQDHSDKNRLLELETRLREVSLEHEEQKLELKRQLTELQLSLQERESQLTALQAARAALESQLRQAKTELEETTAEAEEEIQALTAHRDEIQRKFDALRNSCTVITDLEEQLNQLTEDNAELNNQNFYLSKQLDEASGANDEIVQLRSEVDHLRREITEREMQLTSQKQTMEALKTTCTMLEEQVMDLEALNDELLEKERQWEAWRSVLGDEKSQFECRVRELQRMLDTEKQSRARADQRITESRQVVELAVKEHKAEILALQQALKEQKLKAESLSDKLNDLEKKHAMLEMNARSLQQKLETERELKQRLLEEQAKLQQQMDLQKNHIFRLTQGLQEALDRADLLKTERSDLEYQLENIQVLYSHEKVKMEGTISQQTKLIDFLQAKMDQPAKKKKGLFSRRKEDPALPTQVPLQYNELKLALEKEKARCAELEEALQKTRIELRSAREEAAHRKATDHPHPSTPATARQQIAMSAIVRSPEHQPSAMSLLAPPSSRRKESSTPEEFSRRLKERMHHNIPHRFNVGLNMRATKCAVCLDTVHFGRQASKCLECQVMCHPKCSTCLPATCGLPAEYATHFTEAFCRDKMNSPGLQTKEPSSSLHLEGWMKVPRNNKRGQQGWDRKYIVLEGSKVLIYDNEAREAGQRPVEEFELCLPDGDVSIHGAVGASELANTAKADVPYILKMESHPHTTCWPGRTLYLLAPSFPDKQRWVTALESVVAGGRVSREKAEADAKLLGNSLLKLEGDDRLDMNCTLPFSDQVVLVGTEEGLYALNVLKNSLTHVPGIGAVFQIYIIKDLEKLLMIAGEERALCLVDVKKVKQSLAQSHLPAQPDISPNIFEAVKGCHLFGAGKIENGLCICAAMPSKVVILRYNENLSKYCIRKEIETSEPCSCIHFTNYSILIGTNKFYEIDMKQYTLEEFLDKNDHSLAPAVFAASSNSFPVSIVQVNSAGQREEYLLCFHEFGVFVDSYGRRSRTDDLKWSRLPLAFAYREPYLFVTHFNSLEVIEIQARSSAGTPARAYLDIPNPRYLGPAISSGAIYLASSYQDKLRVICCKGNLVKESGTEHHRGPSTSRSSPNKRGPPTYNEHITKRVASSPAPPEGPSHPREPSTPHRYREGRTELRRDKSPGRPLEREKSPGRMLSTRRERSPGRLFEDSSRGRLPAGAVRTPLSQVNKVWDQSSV
Platelet-derived growth factor receptor alpha (Homo sapiens), P16234 [V561D], sequence (P16234 whole entry V561D): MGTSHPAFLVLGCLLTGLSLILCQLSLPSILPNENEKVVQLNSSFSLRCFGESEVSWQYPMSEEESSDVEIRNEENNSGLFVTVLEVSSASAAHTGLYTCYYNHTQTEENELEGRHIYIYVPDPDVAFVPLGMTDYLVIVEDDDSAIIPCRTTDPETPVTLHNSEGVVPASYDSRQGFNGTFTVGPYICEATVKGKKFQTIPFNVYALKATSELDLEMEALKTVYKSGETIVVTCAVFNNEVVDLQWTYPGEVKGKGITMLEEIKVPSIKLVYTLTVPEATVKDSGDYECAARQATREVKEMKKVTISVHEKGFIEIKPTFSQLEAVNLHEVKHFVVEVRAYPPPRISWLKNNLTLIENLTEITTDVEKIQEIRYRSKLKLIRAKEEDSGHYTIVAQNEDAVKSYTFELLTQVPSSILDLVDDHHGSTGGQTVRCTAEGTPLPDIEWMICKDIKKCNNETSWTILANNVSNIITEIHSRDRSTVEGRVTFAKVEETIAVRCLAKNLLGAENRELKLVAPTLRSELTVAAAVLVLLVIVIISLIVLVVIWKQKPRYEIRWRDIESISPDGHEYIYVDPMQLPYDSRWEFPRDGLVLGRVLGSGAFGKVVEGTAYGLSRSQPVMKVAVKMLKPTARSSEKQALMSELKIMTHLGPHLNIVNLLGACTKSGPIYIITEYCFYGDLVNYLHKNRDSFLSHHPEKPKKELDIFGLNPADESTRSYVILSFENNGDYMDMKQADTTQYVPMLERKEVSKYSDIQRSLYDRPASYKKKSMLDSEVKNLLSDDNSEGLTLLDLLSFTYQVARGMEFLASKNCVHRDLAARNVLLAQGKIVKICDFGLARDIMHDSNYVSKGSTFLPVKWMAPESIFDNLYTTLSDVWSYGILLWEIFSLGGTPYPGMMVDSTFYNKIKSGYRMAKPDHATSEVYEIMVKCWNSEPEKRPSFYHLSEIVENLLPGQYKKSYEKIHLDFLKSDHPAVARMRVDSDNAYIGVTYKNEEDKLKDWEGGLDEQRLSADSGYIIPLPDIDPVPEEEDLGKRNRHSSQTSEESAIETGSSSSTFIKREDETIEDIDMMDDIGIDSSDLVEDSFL
Serine/threonine-protein kinase PAK 5 (Homo sapiens), sequence (Q9P286 whole entry, looked up): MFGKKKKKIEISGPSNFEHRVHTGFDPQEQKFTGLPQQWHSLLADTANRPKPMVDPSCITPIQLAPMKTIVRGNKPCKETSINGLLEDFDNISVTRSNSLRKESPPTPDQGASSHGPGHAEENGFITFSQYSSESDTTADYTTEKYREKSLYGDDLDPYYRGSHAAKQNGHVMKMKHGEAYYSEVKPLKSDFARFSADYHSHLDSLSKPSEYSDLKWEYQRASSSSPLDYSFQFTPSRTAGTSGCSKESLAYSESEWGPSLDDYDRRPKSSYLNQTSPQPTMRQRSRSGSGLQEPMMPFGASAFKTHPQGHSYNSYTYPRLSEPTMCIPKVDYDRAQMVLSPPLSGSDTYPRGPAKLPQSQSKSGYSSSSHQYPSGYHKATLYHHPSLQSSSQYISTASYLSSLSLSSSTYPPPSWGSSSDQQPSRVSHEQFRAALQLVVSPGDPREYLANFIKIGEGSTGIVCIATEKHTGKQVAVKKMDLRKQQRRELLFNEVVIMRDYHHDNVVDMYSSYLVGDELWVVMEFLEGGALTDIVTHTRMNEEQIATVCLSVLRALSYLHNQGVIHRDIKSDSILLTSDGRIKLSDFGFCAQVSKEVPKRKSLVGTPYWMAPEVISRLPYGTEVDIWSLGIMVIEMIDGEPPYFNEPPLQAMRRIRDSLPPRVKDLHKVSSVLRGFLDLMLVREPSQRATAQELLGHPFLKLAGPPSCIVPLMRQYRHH
Inhibitor of nuclear factor kappa-B kinase subunit alpha (Homo sapiens), sequence (O15111 whole entry): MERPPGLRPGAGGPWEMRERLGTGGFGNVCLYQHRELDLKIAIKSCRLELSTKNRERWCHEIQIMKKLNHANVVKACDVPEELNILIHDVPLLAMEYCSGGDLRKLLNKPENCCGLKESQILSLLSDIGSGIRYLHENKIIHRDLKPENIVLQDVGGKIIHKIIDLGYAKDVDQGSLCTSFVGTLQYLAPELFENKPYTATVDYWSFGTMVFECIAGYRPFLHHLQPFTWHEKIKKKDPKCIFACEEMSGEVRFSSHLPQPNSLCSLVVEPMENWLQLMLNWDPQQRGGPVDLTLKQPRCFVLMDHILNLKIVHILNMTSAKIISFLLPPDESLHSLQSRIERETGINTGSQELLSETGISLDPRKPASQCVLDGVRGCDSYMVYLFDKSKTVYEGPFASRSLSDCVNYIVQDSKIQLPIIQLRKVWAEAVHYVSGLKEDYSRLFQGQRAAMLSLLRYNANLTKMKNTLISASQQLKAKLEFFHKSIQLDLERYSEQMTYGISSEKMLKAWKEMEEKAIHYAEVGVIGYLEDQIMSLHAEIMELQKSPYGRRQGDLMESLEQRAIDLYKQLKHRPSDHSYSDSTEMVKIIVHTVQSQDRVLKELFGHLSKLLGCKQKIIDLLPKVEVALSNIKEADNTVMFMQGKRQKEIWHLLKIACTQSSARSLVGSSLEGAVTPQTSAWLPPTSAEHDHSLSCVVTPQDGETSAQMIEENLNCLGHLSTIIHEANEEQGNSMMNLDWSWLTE
Glycogen synthase kinase-3 alpha (Homo sapiens), sequence (P49840 2-483 limits assumed): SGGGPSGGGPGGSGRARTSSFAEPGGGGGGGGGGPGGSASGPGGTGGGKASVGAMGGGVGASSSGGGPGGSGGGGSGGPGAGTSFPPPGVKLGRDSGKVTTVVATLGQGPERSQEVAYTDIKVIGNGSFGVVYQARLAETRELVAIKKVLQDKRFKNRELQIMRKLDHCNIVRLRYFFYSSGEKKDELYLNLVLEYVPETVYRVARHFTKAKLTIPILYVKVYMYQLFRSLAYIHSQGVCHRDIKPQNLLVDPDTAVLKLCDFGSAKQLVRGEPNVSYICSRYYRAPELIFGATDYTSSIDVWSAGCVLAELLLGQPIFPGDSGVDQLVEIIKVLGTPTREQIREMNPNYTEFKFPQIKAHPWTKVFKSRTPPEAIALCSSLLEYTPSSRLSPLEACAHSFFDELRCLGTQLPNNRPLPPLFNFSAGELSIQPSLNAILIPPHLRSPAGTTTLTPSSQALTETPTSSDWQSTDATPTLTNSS
Platelet-derived growth factor receptor alpha (Homo sapiens), sequence (P16234 whole entry): as the sequence (P16234 whole entry V561D) above, with D561V counted along it

COc1ccc2c3ccnc(C(F)(F)F)c3n(CCCCN)c2c1
inhibition [1]: 10%
inhibition [2]: 31%
inhibition [3]: 25%
inhibition [4]: 1%
inhibition [5]: 0%
inhibition [6]: 52%
inhibition [7]: 2%
inhibition [8]: 47%
inhibition [9]: 17%
IC50 [10]: 15 µM
inhibition [11]: 86%
inhibition [12]: 7%
inhibition [13]: 43%
inhibition [14]: 0%
inhibition [15]: 0%
inhibition [16]: 91%
inhibition [17]: 10%
inhibition [18]: 53%
inhibition [19]: 27%
inhibition [20]: 28%
inhibition [21]: 7%
inhibition [22]: 16%
inhibition [23]: 0%
inhibition [24]: 0%
inhibition [25]: 4%
inhibition [26]: 86%
inhibition [27]: 4%
inhibition [28]: 25%
inhibition [29]: 48%
inhibition [30]: 0%
inhibition [31]: 13%
inhibition [32]: 46%
inhibition [33]: 30%
inhibition [34]: 15%
inhibition [35]: 6%
inhibition [36]: 5%
inhibition [37]: 49%
